According to the NIST ThermoML archive (doi:10.1016/j.jct.2009.05.009):

Test: xn = mol fraction of the nth substance listed
Conditions: 101.3 kPa, Liquid, Vibrating tube method

CCCC[N+](C)(C)C.O=S(=O)([N-]S(=O)(=O)C(F)(F)F)C(F)(F)F [butyltrimethylammonium bis(trifluoromethylsulfonyl)imide] + O
mass density [kg/m3]
Conditions	x2 = 0	x2 = 0.0387	x2 = 0.0765	x2 = 0.1132	x2 = 0.14	x2 = 0.189	x2 = 0.2108	x2 = 0.2322
293.15 K	1399.5	1398.4	1397	1395.3	1394.1	1392.4	1391.8	1391.2
298.15 K	1395	1393.9	1392.5	1390.8	1389.5	1387.8	1387.2	1386.6
303.15 K	1390.5	1389.4	1388	1386.3	1385	1383.2	1382.5	1381.8
308.15 K	1386.1	1384.9	1383.5	1381.9	1380.6	1378.7	1377.8	1377.1
313.15 K	1381.6	1380.5	1379	1377.4	1376.1	1374.1	1373.2	1372.4
318.15 K	1377.1	1376	1374.6	1372.9	1371.6	1369.6	1368.7	1367.8
323.15 K	1372.6	1371.5	1370	1368.4	1367.1	1365.1	1364.1	1363.2
328.15 K	1368.2	1367	1365.5	1363.9	1362.6	1360.5	1359.5	1358.5
333.15 K	1363.7	1362.4	1360.9	1359.3	1358	1355.8	1354.8	1353.7
338.15 K	1359.2	1357.9	1356.3	1354.7	1353.3	1351.1	1350	1348.7
343.15 K	1354.8	1353.4	1351.8	1350.2	1348.7	1346.4	1345.1	1343.8

O [water] + CCOS(=O)(=O)[O-].CCn1cc[n+](C)c1
x1 = 1
Conditions	mass density [kg/m3]
318.15 K	990.1
323.15 K	988
328.15 K	985.7
333.15 K	983.2
338.15 K	980.5
343.15 K	977.8
